Assays:
[1] = target: Cannabinoid receptor 1 (Rattus norvegicus, UniProt P20272); test: Binding affinity towards cannabinoid receptor 1 in rat forebrain membranes.; format: cell membranes
[2] = target: Cannabinoid receptor 2 (Mus musculus, UniProt P47936); test: Binding affinity towards Cannabinoid receptor 2 in mouse spleen membranes; format: cell membranes
Cannabinoid receptor 2, sequence (P47936 whole entry): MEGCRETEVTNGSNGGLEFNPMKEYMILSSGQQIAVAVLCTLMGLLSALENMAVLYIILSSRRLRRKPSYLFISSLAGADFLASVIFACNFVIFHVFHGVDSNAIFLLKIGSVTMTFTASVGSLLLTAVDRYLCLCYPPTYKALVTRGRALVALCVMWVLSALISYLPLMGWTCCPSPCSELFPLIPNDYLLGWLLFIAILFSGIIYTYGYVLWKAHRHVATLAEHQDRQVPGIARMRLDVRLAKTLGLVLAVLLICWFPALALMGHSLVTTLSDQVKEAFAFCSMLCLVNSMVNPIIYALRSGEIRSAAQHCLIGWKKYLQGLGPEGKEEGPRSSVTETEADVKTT

Cannabinoid receptor 1, sequence (P20272 whole entry): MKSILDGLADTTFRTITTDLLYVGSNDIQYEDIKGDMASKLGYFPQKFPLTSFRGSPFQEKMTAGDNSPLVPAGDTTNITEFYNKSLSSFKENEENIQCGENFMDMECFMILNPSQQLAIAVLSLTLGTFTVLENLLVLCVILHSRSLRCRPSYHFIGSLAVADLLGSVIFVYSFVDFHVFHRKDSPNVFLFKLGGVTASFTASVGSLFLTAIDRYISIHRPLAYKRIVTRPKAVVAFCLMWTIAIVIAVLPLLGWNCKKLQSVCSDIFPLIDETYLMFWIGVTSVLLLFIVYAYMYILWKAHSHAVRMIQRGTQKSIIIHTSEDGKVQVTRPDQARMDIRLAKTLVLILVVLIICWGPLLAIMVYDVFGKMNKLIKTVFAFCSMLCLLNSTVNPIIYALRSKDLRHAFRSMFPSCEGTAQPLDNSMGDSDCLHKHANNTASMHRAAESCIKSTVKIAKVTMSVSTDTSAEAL

| Compound | Ki [1] [nM] | Ki [2] [nM] |
| --- | --- | --- |
| CCCCCCC1CCCc2c1cc1c(c2O)[C@@H]2CC(C)=CC[C@H]2C(C)(C)O1 (stereo partly drawn) | 22.3 | 58.6 |
| CCCCCC1CCc2c(cc3c(c2O)[C@@H]2CC(C)=CC[C@H]2C(C)(C)O3)C1 (stereo partly drawn) | 402 | 162 |
| CCCCCCC1CCCc2c1cc(O)c1c2OC(C)(C)[C@@H]2CC=C(C)C[C@@H]12 (stereo partly drawn) | 542 | 456 |
| CCCCCCCc1cc(O)c2c(c1)OC(C)(C)[C@@H]1CC=C(C)C[C@@H]21 | 0.43 | 0.39 |

From ChEMBL document CHEMBL1131812, “Novel conformationally restricted tetracyclic analogs of delta8-tetrahydrocannabinol” (Bioorg Med Chem Lett, 1999)
